Values of other authors, collected in patent US7049120B2, “Regulation of human mrp5-like protein” (Bayer HealthCare AG, priority 2001, dated 2006).

Assays:
[1] = molecular target: T1, MRP5 (Homo sapiens, UniProt O15440); design: host or cells: V79 hamster lung fibroblasts, stably expressing; settings: MRP5 stably expressed in V79 hamster lung fibroblasts; Jedlitschsky et al., 2000
[2] = molecular target: T1, MRP5; design: host or cells: polarized Madin-Darby canine kidney II (MDCK II) cells, transfected; settings: polarized MDCK II cells overexpressing human MRP5; Wijnholds et al., 2000
[3] = molecular target: T1, MRP5; design: host or cells: polarized Madin-Darby canine kidney II (MDCK II) cells, transfected; settings: MDCK II cells transfected with human MRP5; Wijnholds et al., 2000

T1 sequence (O15440 whole entry): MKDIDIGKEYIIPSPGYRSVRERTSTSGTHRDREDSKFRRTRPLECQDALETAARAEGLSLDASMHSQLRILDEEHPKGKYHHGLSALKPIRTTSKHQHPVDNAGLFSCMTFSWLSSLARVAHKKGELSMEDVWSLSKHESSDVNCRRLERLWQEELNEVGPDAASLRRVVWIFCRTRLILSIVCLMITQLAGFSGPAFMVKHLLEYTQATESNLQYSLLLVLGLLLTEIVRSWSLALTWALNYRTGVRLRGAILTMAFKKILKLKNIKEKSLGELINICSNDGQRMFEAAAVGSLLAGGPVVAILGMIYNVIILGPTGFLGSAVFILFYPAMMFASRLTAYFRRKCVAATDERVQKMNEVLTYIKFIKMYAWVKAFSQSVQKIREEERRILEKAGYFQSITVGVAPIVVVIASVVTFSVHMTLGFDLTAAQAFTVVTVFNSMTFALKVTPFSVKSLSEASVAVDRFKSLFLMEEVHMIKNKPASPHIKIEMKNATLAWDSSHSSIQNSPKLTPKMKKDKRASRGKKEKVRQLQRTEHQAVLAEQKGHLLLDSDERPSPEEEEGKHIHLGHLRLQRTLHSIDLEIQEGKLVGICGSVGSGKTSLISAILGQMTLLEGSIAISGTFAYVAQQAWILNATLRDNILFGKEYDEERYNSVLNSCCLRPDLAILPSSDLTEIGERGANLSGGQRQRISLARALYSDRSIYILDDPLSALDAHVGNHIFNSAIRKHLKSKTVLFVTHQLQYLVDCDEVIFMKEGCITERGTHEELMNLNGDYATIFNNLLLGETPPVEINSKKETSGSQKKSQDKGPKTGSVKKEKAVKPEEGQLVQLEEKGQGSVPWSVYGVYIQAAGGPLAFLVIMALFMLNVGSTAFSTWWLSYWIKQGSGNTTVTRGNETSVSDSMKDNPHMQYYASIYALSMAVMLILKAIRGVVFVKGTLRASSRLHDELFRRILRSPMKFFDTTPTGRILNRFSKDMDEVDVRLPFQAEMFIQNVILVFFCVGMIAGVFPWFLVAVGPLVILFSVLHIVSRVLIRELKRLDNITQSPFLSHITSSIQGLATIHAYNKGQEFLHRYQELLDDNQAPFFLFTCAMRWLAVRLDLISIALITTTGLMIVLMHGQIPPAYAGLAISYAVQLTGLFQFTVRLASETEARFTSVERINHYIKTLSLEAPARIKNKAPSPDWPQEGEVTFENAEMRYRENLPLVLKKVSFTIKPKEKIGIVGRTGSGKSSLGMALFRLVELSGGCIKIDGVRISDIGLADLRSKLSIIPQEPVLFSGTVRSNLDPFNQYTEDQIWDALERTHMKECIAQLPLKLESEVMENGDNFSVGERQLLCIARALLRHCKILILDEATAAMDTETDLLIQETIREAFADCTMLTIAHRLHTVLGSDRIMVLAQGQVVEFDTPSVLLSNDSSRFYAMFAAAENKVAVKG

Row | Structure (SMILES) | inhibition of MRP5-mediated transport of cyclic nucleotides such as cGMP [1] | resistance of MRP5-overexpressing cells to the drug [2] | also measured
1 | Nc1nc2nc[nH]c2c(=S)[nH]1 [thioguanine] | – | resistant | –
2 | CCCc1nn(C)c2c(=O)[nH]c(-c3cc(S(=O)(=O)N4CCN(C)CC4)ccc3OCC)nc12 [Sildenafil] | inhibited | – | –
3 | Nc1ncnc2c1ncn2CCOCP(=O)(O)O [PMEA, 9-(2-phosphonylmethoxyethyl)-adenine] | – | – | transport of the drug by MRP5-transfected cells [3]: transport

Second part, led by results:

Row | inhibition of MRP5-mediated transport of cyclic nucleotides such as cGMP [1] | resistance of MRP5-overexpressing cells to the drug [2] | Structure (SMILES) | also measured
4 | inhibited | – | CCCOc1ccccc1-c1nc2nn[nH]c2c(=O)[nH]1 [Zaprinast] | –
5 | – | resistant | Sc1ncnc2nc[nH]c12 [6-mercaptopurine] | –
6 | inhibited | – | COc1cc2c(cc1OC)-c1c/c(=N\c3c(C)cc(C)cc3C)n(C)c(=O)n1CC2 [Trequinsin] | –
